Tests used:
[1] = DRUGMATRIX: ATPase, Na+/K+ enzyme inhibition (substrate: ATP); assay type: tissue-based, Sus scrofa, Heart; details: Not Active = under 50% inhibition at 10 µM
Substance-K receptor = molecular target: T1, Substance-K receptor (Homo sapiens, UniProt P21452); assay type: cell membranes, CHO, Membrane; details: cho; further: in other assays of this panel Not Active means under 50% inhibition at 10 µM
T1 sequence (P21452 whole entry): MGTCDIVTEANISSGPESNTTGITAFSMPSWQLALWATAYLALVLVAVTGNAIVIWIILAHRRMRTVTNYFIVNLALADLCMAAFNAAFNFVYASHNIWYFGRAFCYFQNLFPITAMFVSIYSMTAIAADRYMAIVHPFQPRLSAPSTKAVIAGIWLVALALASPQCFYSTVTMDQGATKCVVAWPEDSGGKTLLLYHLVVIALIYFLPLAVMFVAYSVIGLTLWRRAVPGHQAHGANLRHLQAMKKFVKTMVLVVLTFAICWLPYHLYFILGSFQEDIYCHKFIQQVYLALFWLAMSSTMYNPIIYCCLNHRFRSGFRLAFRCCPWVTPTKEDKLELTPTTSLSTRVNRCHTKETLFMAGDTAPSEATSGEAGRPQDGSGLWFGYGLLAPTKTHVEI

[2] = DRUGMATRIX: Phorbol Ester radioligand binding (ligand: [3H] PDBu); assay type: cell membranes, Mus musculus, ICR, Brain, Membrane; details: Not Active = under 50% inhibition at 10 µM
[3] = DRUGMATRIX: Glutamate, AMPA radioligand binding (ligand: [3H] AMPA); assay type: cell membranes, Rattus norvegicus, Wistar, Cerebral cortex, Membrane; details: Not Active = under 50% inhibition at 10 µM
[4] = molecular target: Sigma non-opioid intracellular receptor 1 (Homo sapiens, UniProt Q99720); assay: DRUGMATRIX: Sigma1 radioligand binding (ligand: [3H] Haloperidol); assay type: cell membranes, Jurkat, Membrane; details: jurkat; Not Active = under 50% inhibition at 10 µM
Chain of Sigma non-opioid intracellular receptor 1 (Q99720 whole entry): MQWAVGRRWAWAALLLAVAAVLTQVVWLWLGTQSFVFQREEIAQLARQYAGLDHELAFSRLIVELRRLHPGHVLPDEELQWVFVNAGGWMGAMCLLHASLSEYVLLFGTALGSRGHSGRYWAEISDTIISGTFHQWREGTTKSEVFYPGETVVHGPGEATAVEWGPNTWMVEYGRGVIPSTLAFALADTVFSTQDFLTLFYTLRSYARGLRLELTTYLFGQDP

[5] = DRUGMATRIX: Tumor Necrosis Factor (TNF), Non-Selective radioligand binding (ligand: [125I] TNF-alpha); assay type: cell membranes, Membrane; details: u-937; Not Active = under 50% inhibition at 10 µM
Cytochrome P450 2A6 = molecular target: T2, Cytochrome P450 2A6 (Homo sapiens, UniProt P11509); details: bti-tn-5b1-4; further: in other assays of this panel Not Active means under 50% inhibition at 10 µM
T2 sequence (P11509 whole entry): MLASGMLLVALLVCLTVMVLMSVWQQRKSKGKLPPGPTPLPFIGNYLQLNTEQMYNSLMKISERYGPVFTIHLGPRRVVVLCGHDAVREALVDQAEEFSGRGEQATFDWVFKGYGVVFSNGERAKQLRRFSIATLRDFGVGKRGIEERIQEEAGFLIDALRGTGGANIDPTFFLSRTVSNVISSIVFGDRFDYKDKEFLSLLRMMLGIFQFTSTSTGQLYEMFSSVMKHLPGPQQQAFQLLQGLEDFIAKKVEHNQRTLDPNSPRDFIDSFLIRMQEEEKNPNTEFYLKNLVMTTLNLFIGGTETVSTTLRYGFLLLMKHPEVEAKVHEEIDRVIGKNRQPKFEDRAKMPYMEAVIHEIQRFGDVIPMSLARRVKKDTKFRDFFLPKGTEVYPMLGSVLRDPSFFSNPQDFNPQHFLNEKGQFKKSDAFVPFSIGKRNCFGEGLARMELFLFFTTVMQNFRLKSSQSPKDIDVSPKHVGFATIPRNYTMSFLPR

Cc1c(C)c2c(c(C)c1O)CCC(C)(COc1ccc(CC3SC(=O)NC3=O)cc1)O2 (stereo not given) [TROGLITAZONE]
Not Active: IC50 [1] | Ki [1] | IC50 (Substance-K receptor) | IC50 [2] | Ki [2] | IC50 [3] | Ki [3] | IC50 [4] | IC50 [5] | Ki [5] | IC50 (Cytochrome P450 2A6) | Ki (Cytochrome P450 2A6)

COc1nc(C)nc(Cl)c1NC1=NCCN1 [MOXONIDINE]
Not Active: IC50 [1] | Ki [1] | IC50 (Substance-K receptor) | IC50 [2] | Ki [2] | IC50 [3] | Ki [3] | IC50 [4] | IC50 [5] | Ki [5] | IC50 (Cytochrome P450 2A6) | Ki (Cytochrome P450 2A6)

OCCN(CCO)c1nc(N2CCCCC2)c2nc(N(CCO)CCO)nc(N3CCCCC3)c2n1 [DIPYRIDAMOLE]
Not Active: IC50 [1] | Ki [1] | IC50 (Substance-K receptor) | IC50 [2] | Ki [2] | IC50 [3] | Ki [3] | IC50 [4] | IC50 [5] | Ki [5] | IC50 (Cytochrome P450 2A6) | Ki (Cytochrome P450 2A6)

O=NN(CCCl)C(=O)NC1CCCCC1 [LOMUSTINE]
Not Active: IC50 [1] | Ki [1] | IC50 (Substance-K receptor) | IC50 [2] | Ki [2] | IC50 [3] | Ki [3] | IC50 [4] | IC50 [5] | Ki [5] | IC50 (Cytochrome P450 2A6) | Ki (Cytochrome P450 2A6)

O=c1ncn2nc(Sc3ccc(F)cc3F)ccc2c1-c1c(Cl)cccc1Cl [NEFLAMAPIMOD]
Not Active: IC50 [1] | Ki [1] | IC50 (Substance-K receptor) | IC50 [2] | Ki [2] | IC50 [3] | Ki [3] | IC50 [4] | IC50 [5] | Ki [5] | IC50 (Cytochrome P450 2A6) | Ki (Cytochrome P450 2A6)

CC[C@]1(O)C[C@H]2CN(CCc3c([nH]c4ccccc34)[C@@](C(=O)OC)(c3cc4c(cc3OC)N(C=O)[C@H]3[C@@](O)(C(=O)OC)[C@H](OC(C)=O)[C@]5(CC)C=CCN6CC[C@]43[C@@H]65)C2)C1 [VINCRISTINE]
Not Active: IC50 [1] | Ki [1] | IC50 (Substance-K receptor) | IC50 [2] | Ki [2] | IC50 [3] | Ki [3] | IC50 [4] | IC50 [5] | Ki [5] | IC50 (Cytochrome P450 2A6) | Ki (Cytochrome P450 2A6)

CSc1ccc(/C=C2/C(C)=C(CC(=O)O)c3cc(F)ccc32)cc1 [SULINDAC SULFIDE]
Not Active: IC50 [1] | Ki [1] | IC50 (Substance-K receptor) | IC50 [2] | Ki [2] | IC50 [3] | Ki [3] | IC50 [4] | IC50 [5] | Ki [5] | IC50 (Cytochrome P450 2A6) | Ki (Cytochrome P450 2A6)

CC(=O)[C@@]1(O)CC[C@H]2[C@@H]3C[C@H](C)C4=CC(=O)CC[C@]4(C)[C@H]3CC[C@@]21C
Not Active: IC50 [1] | Ki [1] | IC50 (Substance-K receptor) | IC50 [2] | Ki [2] | IC50 [3] | Ki [3] | IC50 [4] | IC50 [5] | Ki [5] | IC50 (Cytochrome P450 2A6) | Ki (Cytochrome P450 2A6)

Cc1noc(NS(=O)(=O)c2ccc(N)cc2)c1C [SULFISOXAZOLE]
Not Active: IC50 [1] | Ki [1] | IC50 (Substance-K receptor) | IC50 [2] | Ki [2] | IC50 [3] | Ki [3] | IC50 [4] | IC50 [5] | Ki [5] | IC50 (Cytochrome P450 2A6) | Ki (Cytochrome P450 2A6)

N[C@@H](Cc1ccc(O)c(O)c1)C(=O)O [LEVODOPA]
Not Active: IC50 [1] | Ki [1] | IC50 (Substance-K receptor) | IC50 [2] | Ki [2] | IC50 [3] | Ki [3] | IC50 [4] | IC50 [5] | Ki [5] | IC50 (Cytochrome P450 2A6) | Ki (Cytochrome P450 2A6)

NS(=O)(=O)c1cc2c(cc1Cl)NC(C(Cl)Cl)NS2(=O)=O (stereo not given) [TRICHLORMETHIAZIDE]
Not Active: IC50 [1] | Ki [1] | IC50 (Substance-K receptor) | IC50 [2] | Ki [2] | IC50 [3] | Ki [3] | IC50 [4] | IC50 [5] | Ki [5] | IC50 (Cytochrome P450 2A6) | Ki (Cytochrome P450 2A6)

Nc1c2c(nc3ccccc13)CCCC2 [TACRINE]
Not Active: IC50 [1] | Ki [1] | IC50 (Substance-K receptor) | IC50 [2] | Ki [2] | IC50 [3] | Ki [3] | IC50 [4] | IC50 [5] | Ki [5] | IC50 (Cytochrome P450 2A6) | Ki (Cytochrome P450 2A6)

NC[C@H]1CC[C@H](C(=O)O)CC1 [TRANEXAMIC ACID]
Not Active: IC50 [1] | Ki [1] | IC50 (Substance-K receptor) | IC50 [2] | Ki [2] | IC50 [3] | Ki [3] | IC50 [4] | IC50 [5] | Ki [5] | IC50 (Cytochrome P450 2A6) | Ki (Cytochrome P450 2A6)

CCOC(=O)N1CCC(=C2c3ccc(Cl)cc3CCc3cccnc32)CC1 [LORATADINE]
Not Active: IC50 [1] | Ki [1] | IC50 (Substance-K receptor) | IC50 [2] | Ki [2] | IC50 [3] | Ki [3] | IC50 [4] | IC50 [5] | Ki [5] | IC50 (Cytochrome P450 2A6) | Ki (Cytochrome P450 2A6)

c1ccc([C@H]2CN3CCSC3=N2)cc1 [LEVAMISOLE]
Not Active: IC50 [1] | Ki [1] | IC50 (Substance-K receptor) | IC50 [2] | Ki [2] | IC50 [3] | Ki [3] | IC50 [4] | IC50 [5] | Ki [5] | IC50 (Cytochrome P450 2A6) | Ki (Cytochrome P450 2A6)
